Data as given in article PMC8619914, “Development of Novel Peptides for the Antimicrobial Combination Therapy against Carbapenem-Resistant Acinetobacter baumannii Infection” (Pharmaceutics, 2021).
≈ marks a conversion by molar mass, not a printed value. Where two headings read alike, the source gives them in different places. Where no end group is shown, it is not given here.

Experiments:
[1] = test system: Acinetobacter baumannii (KCCM 40203); test: microbe, parasite or virus in culture; details: for Minimum Inhibitory Concentration, A. baumanii: KCCM 40203, 16 h; for MIC: Acinetobacter baumannii, KCCM40203, 16 h, read-out: Minimum Inhibitory Concentration, A. baumanii
Text: (§1) The Gram-negative bacterial strain Escherichia coli (KCTC 1682) and Gram-positive bacterial strain Staphylococcus aureus (KCTC 1621) were purchased from the Korean Collection for Type Cultures (Jeongeup, Korea). Acinetobacter baumannii (KCCM 40203) were purchased from Korea Culture Center of Microorganisms (Seoul, Korea). Additionally, five carbapenem-resistant Acinetobacter baumanii C1–C5 (CRAB C1–C5), which have the OXA-23 gene with carbapenem-resistance were collected from the patients with CRAB bacteremia, who presented symptoms and signs of infection at Korea University Anam Hospital (Seoul, Korea) (IRB registration no. 2020AN0157). The minimum inhibitory concentrations (MIC) of the AMP and antibiotics against the various bacterial strains were assessed using the serial dilution method on Muller–Hinton (MH) media, as described previously. […] Absorbance at 600 nm was measured using a SpectraMAX microplate reader (Molecular Devices, San Jose, CA, USA).
(§2) Measurement of the minimum inhibitory concentrations (MIC) was conducted to determine the effect of the hydrophobicity of each antimicrobial peptide on its antimicrobial activity. MIC was defined as the minimum concentration that killed more than 99% of bacteria; it was measured against two standard Gram-negative bacteria (E. coli and A. baumanii), five clinically isolated CRAB (C1–C5), and one Gram-positive bacteria (S. aureus).

CRAB C1 [2] = test: microbe, parasite or virus in culture; details: 16 h; for Minimum Inhibitory Concentration, CRAB C1: MH media, 2 × 10^5 CFU·mL^−1, 37 °C, absorbance 600 nm; for MIC: Acinetobacter baumannii
Text: as §1, §2

CRAB C2 [3] = test: microbe, parasite or virus in culture; details: 16 h; for Minimum Inhibitory Concentration, CRAB C2: MH media, 2 × 10^5 CFU·mL^−1, 37 °C, absorbance 600 nm; for MIC: Acinetobacter baumannii, read-out: Minimum Inhibitory Concentration, CRAB C2
Text: as §1, §2

CRAB C3 [4] = test: microbe, parasite or virus in culture; details: 16 h; for Minimum Inhibitory Concentration, CRAB C3: MH media, 2 × 10^5 CFU·mL^−1, 37 °C, absorbance 600 nm; for MIC: Acinetobacter baumannii, read-out: Minimum Inhibitory Concentration, CRAB C3
Text: as §1, §2

CRAB C4 [5] = test: microbe, parasite or virus in culture; details: 16 h; for Minimum Inhibitory Concentration, CRAB C4: MH media, 2 × 10^5 CFU·mL^−1, 37 °C, absorbance 600 nm; for MIC: Acinetobacter baumannii, read-out: Minimum Inhibitory Concentration, CRAB C4
Text: as §1, §2

CRAB C5 [6] = test: microbe, parasite or virus in culture; details: 16 h; for Minimum Inhibitory Concentration, CRAB C5: MH media, 2 × 10^5 CFU·mL^−1, 37 °C, absorbance 600 nm; for MIC: Acinetobacter baumannii, read-out: Minimum Inhibitory Concentration, CRAB C5
Text: as §1, §2

[7] = test system: Escherichia coli (KCTC 1682); test: microbe, parasite or virus in culture; details: for Minimum Inhibitory Concentration, E. coli: MH media, 2 × 10^5 CFU·mL^−1, 37 °C, 16 h, absorbance 600 nm, MIC kills more than 99% of bacteria; for MIC: Escherichia coli, KCTC1682, 16 h, read-out: Minimum Inhibitory Concentration, E. coli
Text: as §1, §2

[8] = test system: Staphylococcus aureus (KCTC 1621); test: microbe, parasite or virus in culture; details: for Minimum Inhibitory Concentration, S.aureus: KCTC 1621, 16 h; for MIC: Staphylococcus aureus, KCTC1621, 16 h, read-out: Minimum Inhibitory Concentration, S.aureus
Text: as §1, §2

[9] = test system: Gram-negative bacterial strains; test: organism not typed; details: for GM (mean MIC of Gram-negative bacterial strains): seven Gram-negative strains, 256 assumed for MIC > 128 and 1024 for MIC > 512 μg·mL^−1; for MIC: read-out: GM (mean MIC of Gram-negative bacterial strains)
Text: as §1
Geometric means (GM) were calculated to compare the relative antimicrobial activities of the analogs against Gram-negative bacteria. […] Next, the antibacterial mechanisms of peptides were investigated.

CRAB C1 [10] = test: microbe, parasite or virus in culture; details: Acinetobacter baumannii, 16 h, read-out: MIC alone, CRAB C1
Procedure: (§3) The synergistic effects of AMPs and antibiotics were measured using checkerboard assays. Serial dilutions of PapMA-3 and antibiotics were performed from 1 to […] of the MIC. Samples were then cross-mixed and cultured in MH medium with 2 × 10^5 CFU·ml^−^1 bacteria. Results were recorded after 16 h of incubation at 37 °C. The fractional inhibitory concentration index (FICI) was calculated according to the European Committee on Antimicrobial Susceptibility (EUCAST).
(§4) The ability of PapMA-3 to facilitate these antibiotics in penetrating the bacterial membranes of Gram-negative bacteria was investigated.

CRAB C2 [11] = test: microbe, parasite or virus in culture; details: Acinetobacter baumannii, 16 h, read-out: MIC alone, CRAB C2
Procedure: as §3, §4

CRAB C3 [12] = test: microbe, parasite or virus in culture; details: Acinetobacter baumannii, 16 h, read-out: MIC alone, CRAB C3
Procedure: as §3, §4

CRAB C4 [13] = test: microbe, parasite or virus in culture; details: Acinetobacter baumannii, 16 h, read-out: MIC alone, CRAB C4
Procedure: as §3, §4

CRAB C5 [14] = test: microbe, parasite or virus in culture; details: Acinetobacter baumannii, 16 h, read-out: MIC alone, CRAB C5
Procedure: as §3, §4

CRAB C1 biofilm = test: Biofilm inhibition, crystal violet; assay type: cell-based, carbapenem-resistant Acinetobacter baumannii; details: Acinetobacter baumannii; 32 μg·mL^−1, CRAB C1, compared to the control; read-out: percentage of biofilm inhibition
Procedure: CRAB C1 cells (2 × 10^5 CFU·mL^−^1) were incubated with PapMA-3 and antibiotics in a tissue-culture well plate in MH medium containing 0.2% glucose for 16 h at 37 °C. The cells were stained with 0.1% (w/v) crystal violet in 0.25% (v/v) acetic acid for 1 h at room temperature; the dye complex was dissolved with ethanol. Absorbance at 595 nm was measured using SpectraMAX microplate reader (Molecular Devices) to quantify the biofilm formation.
Biofilms were quantified by staining with crystal violet. (A) Absorbance of crystal violet-stained biofilms with treatment of PapMA-3 and antibiotics at a concentration range of 32 to 512 μg·mL^−1, assessed at 595 nm. […] CRAB C1 without peptides or antibiotics served as the control (red). Statistical analysis was performed using two-way ANOVA with Dunnett’s comparison test. The values are expressed as the mean ± SEM of three independent experiments and are statistically significant at ** p < 0.01 and *** p < 0.001. ns, not significant.

[15] = read-out: Minimum Inhibitory Concentration, CRAB C1

Compound	Minimum Inhibitory Concentration, A. baumanii [1]	Minimum Inhibitory Concentration, CRAB C1 (CRAB C1 [2])	Minimum Inhibitory Concentration, CRAB C2 (CRAB C2 [3])	Minimum Inhibitory Concentration, CRAB C3 (CRAB C3 [4])	Minimum Inhibitory Concentration, CRAB C4 (CRAB C4 [5])	Minimum Inhibitory Concentration, CRAB C5 (CRAB C5 [6])	Minimum Inhibitory Concentration, E. coli [7]	Minimum Inhibitory Concentration, S.aureus [8]	GM (mean MIC of Gram-negative bacterial strains) [9]	MIC [1]	MIC (CRAB C1 [2]; [15])	MIC (CRAB C2 [3])	MIC (CRAB C3 [4])	MIC (CRAB C4 [5])	MIC (CRAB C5 [6])	MIC [7]	MIC [8]	MIC [9]	MIC (CRAB C1 [10])	MIC (CRAB C2 [11])	further results
RWKIFKKIPKFLHSFKKF-NH2 [PapMA-4]	8 µg/mL	8 µg/mL	8 µg/mL	8 µg/mL	16 µg/mL	8 µg/mL	16 µg/mL	32 µg/mL	10 µg/mL	–	–	–	–	–	–	–	–	–	–	–	–
C[C@@H](O)[C@H]1C(=O)N2C(C(=O)O)=C(SCCN=CN)C[C@H]12 [Imipenem]	–	–	–	–	–	–	–	–	–	0.25 µg/mL (≈ 0.835 µM)	64 µg/mL (≈ 214 µM)	64 µg/mL (≈ 214 µM)	64 µg/mL (≈ 214 µM)	64 µg/mL (≈ 214 µM)	64 µg/mL (≈ 214 µM)	0.25 µg/mL (≈ 0.835 µM)	1 µg/mL (≈ 3.34 µM)	46 µg/mL	64 µg/mL	64 µg/mL	MIC (CRAB C1 [2]; read-out: Minimum Inhibitory Concentration, CRAB C1, MH Media): 64 µg/mL (≈ 214 µM); MIC (CRAB C3 [12]): 64 µg/mL; MIC (CRAB C4 [13]): 64 µg/mL; MIC (CRAB C5 [14]): 64 µg/mL; inhibition at 32 µg/mL (CRAB C1 biofilm): 88.9%
CC(=O)NC[C@H]1CN(c2ccc(N3CCOCC3)c(F)c2)C(=O)O1 [Linezolid]	–	–	–	–	–	–	–	–	–	256 µg/mL (≈ 759 µM)	256 µg/mL (≈ 759 µM)	256 µg/mL (≈ 759 µM)	256 µg/mL (≈ 759 µM)	512 µg/mL (≈ 1520 µM)	512 µg/mL (≈ 1520 µM)	256 µg/mL (≈ 759 µM)	1 µg/mL (≈ 2.96 µM)	329 µg/mL	256 µg/mL	256 µg/mL	MIC (CRAB C3 [12]): 256 µg/mL; MIC (CRAB C4 [13]): 512 µg/mL; MIC (CRAB C5 [14]): 512 µg/mL; inhibition at 32 µg/mL (CRAB C1 biofilm): 4.4%
RWKIFKKIPKFLHSAKKF-NH2 [PapMA]	32 µg/mL	32 µg/mL	32 µg/mL	16 µg/mL	64 µg/mL	32 µg/mL	32 µg/mL	64 µg/mL	34 µg/mL	–	–	–	–	–	–	–	–	–	–	–	–
CO[C@H]1/C=C/O[C@@]2(C)Oc3c(C)c(O)c4c(O)c(c(/C=N/N5CCN(C)CC5)c(O)c4c3C2=O)NC(=O)/C(C)=C\C=C\[C@H](C)[C@H](O)[C@@H](C)[C@@H](O)[C@@H](C)[C@H](OC(C)=O)[C@@H]1C [Rifampin]	–	–	–	–	–	–	–	–	–	4 µg/mL (≈ 4.86 µM)	128 µg/mL (≈ 156 µM)	64 µg/mL (≈ 77.8 µM)	128 µg/mL (≈ 156 µM)	128 µg/mL (≈ 156 µM)	256 µg/mL (≈ 311 µM)	2 µg/mL (≈ 2.43 µM)	1 µg/mL (≈ 1.22 µM)	101 µg/mL	128 µg/mL	64 µg/mL	MIC (CRAB C3 [12]): 128 µg/mL; MIC (CRAB C4 [13]): 128 µg/mL; MIC (CRAB C5 [14]): 256 µg/mL; inhibition at 32 µg/mL (CRAB C1 biofilm): 77.5%
C[C@@H](O)[C@H]1C(=O)N2C(C(=O)O)=C(S[C@@H]3CN[C@H](C(=O)N(C)C)C3)[C@H](C)[C@H]12 [Meropenem]	–	–	–	–	–	–	–	–	–	0.25 µg/mL (≈ 0.652 µM)	128 µg/mL (≈ 334 µM)	64 µg/mL (≈ 167 µM)	64 µg/mL (≈ 167 µM)	128 µg/mL (≈ 334 µM)	64 µg/mL (≈ 167 µM)	0.25 µg/mL (≈ 0.652 µM)	1 µg/mL (≈ 2.61 µM)	64 µg/mL	128 µg/mL	64 µg/mL	MIC (CRAB C3 [12]): 64 µg/mL; MIC (CRAB C4 [13]): 128 µg/mL; MIC (CRAB C5 [14]): 64 µg/mL; inhibition at 32 µg/mL (CRAB C1 biofilm): 79.2%
RWKIFKKIPKFLHSWKKF-NH2 [PapMA-5]	16 µg/mL	16 µg/mL	16 µg/mL	16 µg/mL	32 µg/mL	16 µg/mL	16 µg/mL	32 µg/mL	18 µg/mL	–	–	–	–	–	–	–	–	–	–	–	–
RWKIFKKIPKFLHSWKKW-NH2 [PapMA-6]	8 µg/mL	8 µg/mL	8 µg/mL	8 µg/mL	16 µg/mL	16 µg/mL	16 µg/mL	32 µg/mL	11 µg/mL	–	–	–	–	–	–	–	–	–	–	–	–
RWKIFKKIPKFLHSAKKA-NH2 [PapMA-2]	128 µg/mL	128 µg/mL	>128 µg/mL	64 µg/mL	>128 µg/mL	128 µg/mL	64 µg/mL	>128 µg/mL	146 µg/mL	–	–	–	–	–	–	–	–	–	–	–	–
